Source: PubChem BioAssay (NCI)
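Assay format: 96-well plates, 48-hour exposure. TGI is the concentration that stops growth completely.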

How the values were obtained:
Assay in all cases: NCI-60 cell line screen, 48 h
[1] = tested on: 786-0 renal
[2] = tested on: A498 renal
[3] = tested on: A549 NSCLC
[4] = tested on: ACHN renal
[5] = tested on: CAKI-1 renal
[6] = tested on: CCRF-CEM leukemia
[7] = tested on: COLO 205 colon
[8] = tested on: DLD-1 colon
[9] = tested on: DMS 114 small cell lung
[10] = tested on: DMS 273 small cell lung
[11] = tested on: EKVX NSCLC
[12] = tested on: HCT-116 colon
[13] = tested on: HCT-15 colon
[14] = tested on: HL-60(TB) leukemia
[15] = tested on: HOP-18 NSCLC
[16] = tested on: HOP-62 NSCLC
[17] = tested on: HOP-92 NSCLC
[18] = tested on: HT29 colon
[19] = tested on: IGROV1 ovarian
[20] = tested on: K-562 leukemia
[21] = tested on: KM12 colon
[22] = tested on: KM20L2 colon
[23] = tested on: LXFL 529 NSCLC
[24] = tested on: M14 melanoma
[25] = tested on: M19-MEL melanoma
[26] = tested on: MALME-3M melanoma
[27] = tested on: MOLT-4 leukemia
[28] = tested on: NCI-H226 lung
[29] = tested on: NCI-H23 lung
[30] = tested on: NCI-H460 lung
[31] = tested on: NCI-H522 lung
[32] = tested on: OVCAR-3 ovarian
[33] = tested on: OVCAR-4 ovarian
[34] = tested on: OVCAR-5 ovarian
[35] = tested on: OVCAR-8 ovarian
[36] = tested on: RPMI-8226 leukemia
[37] = tested on: SF-268 CNS
[38] = tested on: SF-295 CNS
[39] = tested on: SF-539 CNS
[40] = tested on: SK-MEL-2 melanoma
[41] = tested on: SK-MEL-28 melanoma
[42] = tested on: SK-MEL-5 melanoma
[43] = tested on: SK-OV-3 ovarian
[44] = tested on: SN12C renal
[45] = tested on: SNB-19 CNS
[46] = tested on: SNB-75 CNS
[47] = tested on: SNB-78 CNS
[48] = tested on: SR leukemia
[49] = tested on: SW-620 colon
[50] = tested on: TK-10 renal
[51] = tested on: U251 CNS
[52] = tested on: UACC-257 melanoma
[53] = tested on: UACC-62 melanoma
[54] = tested on: UO-31 renal
[55] = tested on: HCC-2998 colon
[56] = tested on: RXF 393 renal
[57] = tested on: RXF-631 renal
[58] = tested on: XF 498 CNS
[59] = tested on: LOX IMVI melanoma

`COC(=O)CSc1n[nH]c(-c2ccccc2)n1` was tested, and the TGI [1] was over 100 µM, the TGI [2] was over 100 µM and the TGI [3] was over 100 µM. It also gave a TGI [4] of over 100 µM, a TGI [5] of over 100 µM and a TGI [6] of over 100 µM. For the same compound, the TGI [7] was over 100 µM, the TGI [8] was over 100 µM and the TGI [9] was over 100 µM. It also gave a TGI [10] of over 100 µM, a TGI [11] of over 100 µM and a TGI [12] of over 100 µM. The TGI [13] was over 100 µM, the TGI [14] was over 100 µM and the TGI [15] was over 100 µM. For the same compound, the TGI [16] was over 100 µM, the TGI [17] was over 100 µM and the TGI [18] was over 100 µM. For the same compound, the TGI [19] was over 100 µM, the TGI [20] was over 100 µM and the TGI [21] was over 100 µM. The TGI [22] was over 100 µM, the TGI [23] was over 100 µM and the TGI [24] was over 100 µM. For the same compound, the TGI [25] was over 100 µM, the TGI [26] was over 100 µM and the TGI [27] was 43.2 µM. The TGI [28] was over 100 µM, the TGI [29] was over 100 µM and the TGI [30] was over 100 µM. It also gave a TGI [31] of over 100 µM, a TGI [32] of over 100 µM and a TGI [33] of over 100 µM. The TGI [34] was over 100 µM, the TGI [35] was over 100 µM and the TGI [36] was over 100 µM. The TGI [37] was over 100 µM, the TGI [38] was over 100 µM and the TGI [39] was over 100 µM. The TGI [40] was over 100 µM, the TGI [41] was over 100 µM and the TGI [42] was over 100 µM. It also gave a TGI [43] of over 100 µM, a TGI [44] of over 100 µM and a TGI [45] of over 100 µM. The TGI [46] was over 100 µM, the TGI [47] was over 100 µM and the TGI [48] was 43.5 µM. The TGI [49] was over 100 µM, the TGI [50] was over 100 µM and the TGI [51] was over 100 µM. The TGI [52] was over 100 µM, the TGI [53] was over 100 µM and the TGI [54] was over 100 µM.

`COc1ccccc1/C=C1\N=C(C)OC1=O` was tested, and the TGI [5] was over 100 µM, the TGI [6] was over 100 µM and the TGI [7] was over 100 µM. The TGI [8] was over 100 µM, the TGI [55] was over 100 µM and the TGI [13] was over 100 µM. It also gave a TGI [17] of over 100 µM, a TGI [18] of over 100 µM and a TGI [19] of over 100 µM. The TGI [20] was over 100 µM, the TGI [21] was over 100 µM and the TGI [22] was over 100 µM. For the same compound, the TGI [24] was over 100 µM, the TGI [25] was over 100 µM and the TGI [26] was over 100 µM. For the same compound, the TGI [27] was over 100 µM, the TGI [29] was over 100 µM and the TGI [31] was over 100 µM. For the same compound, the TGI [32] was over 100 µM, the TGI [33] was over 100 µM and the TGI [34] was over 100 µM. For the same compound, the TGI [35] was over 100 µM, the TGI [56] was over 100 µM and the TGI [57] was over 100 µM. The TGI [38] was over 100 µM, the TGI [40] was over 100 µM and the TGI [41] was over 100 µM. The TGI [42] was over 100 µM, the TGI [43] was over 100 µM and the TGI [44] was over 100 µM. The TGI [45] was over 100 µM, the TGI [47] was over 100 µM and the TGI [48] was over 100 µM. It also gave a TGI [49] of over 100 µM, a TGI [50] of over 100 µM and a TGI [51] of over 100 µM. For the same compound, the TGI [53] was over 100 µM, the TGI [54] was over 100 µM and the TGI [58] was over 100 µM.

`COc1ccc(/C=c2\sc3nnc(CCC(=O)Nc4cccc(C(F)(F)F)c4)n3c2=O)cc1` was tested, and the TGI [1] was over 100 µM, the TGI [2] was over 100 µM and the TGI [3] was over 100 µM. The TGI [4] was over 100 µM, the TGI [5] was over 100 µM and the TGI [6] was 90.3 µM. For the same compound, the TGI [7] was over 100 µM, the TGI [8] was over 100 µM and the TGI [9] was over 100 µM. For the same compound, the TGI [10] was over 100 µM, the TGI [11] was over 100 µM and the TGI [55] was over 100 µM. For the same compound, the TGI [12] was over 100 µM, the TGI [13] was over 100 µM and the TGI [14] was over 71.6 µM. For the same compound, the TGI [15] was over 100 µM, the TGI [16] was over 100 µM and the TGI [17] was over 100 µM. The TGI [18] was over 100 µM, the TGI [19] was over 100 µM and the TGI [20] was over 100 µM. The TGI [21] was over 100 µM, the TGI [22] was over 100 µM and the TGI [59] was over 100 µM. It also gave a TGI [23] of over 100 µM, a TGI [24] of over 100 µM and a TGI [25] of over 100 µM. It also gave a TGI [26] of over 100 µM, a TGI [27] of over 27.4 µM and a TGI [28] of over 100 µM. The TGI [29] was over 100 µM, the TGI [30] was over 100 µM and the TGI [32] was over 100 µM. For the same compound, the TGI [33] was over 100 µM, the TGI [34] was over 100 µM and the TGI [35] was over 100 µM. The TGI [36] was over 95.5 µM, the TGI [56] was 98.5 µM and the TGI [57] was over 100 µM. The TGI [37] was over 100 µM, the TGI [38] was over 100 µM and the TGI [39] was over 100 µM. The TGI [40] was over 100 µM, the TGI [41] was over 100 µM and the TGI [42] was over 100 µM. It also gave a TGI [43] of over 100 µM, a TGI [44] of over 100 µM and a TGI [45] of over 100 µM. The TGI [46] was over 100 µM, the TGI [47] was over 100 µM and the TGI [48] was 75.8 µM. For the same compound, the TGI [49] was over 100 µM, the TGI [50] was over 100 µM and the TGI [51] was over 100 µM. For the same compound, the TGI [52] was over 100 µM, the TGI [53] was over 100 µM and the TGI [54] was over 100 µM. The TGI [58] was over 100 µM.

In the case of `CC1(Br)S(=O)(=O)OCCOS1(=O)=O`, the TGI [1] is reported as over 100 µM, the TGI [2] is reported as over 100 µM and the TGI [3] is reported as over 100 µM. The TGI [4] was over 100 µM, the TGI [6] was over 100 µM and the TGI [7] was over 100 µM. It also gave a TGI [8] of over 100 µM, a TGI [9] of over 100 µM and a TGI [10] of over 100 µM. For the same compound, the TGI [11] was over 100 µM, the TGI [55] was over 100 µM and the TGI [12] was over 100 µM. It also gave a TGI [13] of over 100 µM, a TGI [14] of over 100 µM and a TGI [16] of over 100 µM. It also gave a TGI [17] of over 100 µM, a TGI [18] of over 100 µM and a TGI [19] of over 100 µM. The TGI [20] was over 100 µM, the TGI [22] was over 100 µM and the TGI [59] was over 100 µM. It also gave a TGI [23] of over 100 µM, a TGI [24] of over 100 µM and a TGI [25] of over 100 µM. For the same compound, the TGI [26] was over 100 µM, the TGI [27] was over 100 µM and the TGI [28] was over 100 µM. For the same compound, the TGI [29] was over 100 µM, the TGI [30] was over 100 µM and the TGI [31] was over 100 µM. For the same compound, the TGI [32] was over 100 µM, the TGI [33] was over 100 µM and the TGI [34] was over 100 µM. The TGI [35] was over 100 µM, the TGI [36] was over 100 µM and the TGI [56] was over 100 µM. It also gave a TGI [37] of over 100 µM, a TGI [38] of over 100 µM and a TGI [39] of over 100 µM. The TGI [40] was over 100 µM, the TGI [41] was over 100 µM and the TGI [42] was over 100 µM. It also gave a TGI [43] of over 100 µM, a TGI [44] of over 100 µM and a TGI [45] of over 100 µM. It also gave a TGI [46] of over 100 µM, a TGI [47] of over 100 µM and a TGI [48] of over 100 µM. It also gave a TGI [49] of over 100 µM, a TGI [50] of over 100 µM and a TGI [51] of over 100 µM. The TGI [52] was over 100 µM, the TGI [53] was over 100 µM and the TGI [54] was over 100 µM. The TGI [58] was over 100 µM.
